Source: patent US12077503B2, “Substituted cyclic amides and their use as herbicides” (FMC CORPORATION, priority 2015, dated 2024)

Tests used:
Type in all cases: in vivo
[1] = test system: pigweed (Amaranthus retroflexus); test: Test A preemergence; conditions: Amaranthus retroflexus, pre-emergence, 240 h
[2] = test system: ragweed (common ragweed, Ambrosia elatior); test: Test A preemergence; conditions: Ambrosia artemisiifolia, pre-emergence, 240 h
Method in brief: (§1)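 Visual injury, scored on a 0–100 scale relative to untreated controls, was recorded about 10 d after application. Treatments were a preemergence soil spray over planted seeds or a postemergence spray on plants at the one- to two-leaf stage, 2 to 10 cm tall, all in loam soil–sand blend in the greenhouse.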

[3] = test system: Kochia (Kochia scoparia); test: Test A preemergence; conditions: Bassia scoparia, pre-emergence, 240 h
Method in brief: as §1

[4] = test system: barnyardgrass (Echinochloa crus-galli); test: Test A preemergence; conditions: Echinochloa crus-galli, pre-emergence, 240 h
Method in brief: as §1

[5] = test system: ryegrass, Italian (Italian ryegrass, Lolium multiflorum); test: Test A preemergence; conditions: Lolium multiflorum, pre-emergence, 240 h
Method in brief: as §1

[6] = test system: giant foxtail (Setaria faberii); test: Test A preemergence; conditions: Setaria faberi, pre-emergence, 240 h
Method in brief: as §1

[7] = test system: pigweed (Amaranthus retroflexus); test: Test A postemergence; conditions: Amaranthus retroflexus, post-emergence, 240 h, 125 g ai/ha, Postemergence; visual injury after approximately 10 d; 0 to 100 scale where 0 is no effect and 100 is complete control; read-out: Plant response rating, Pigweed
Method in brief: as §1

[8] = test system: ragweed (common ragweed, Ambrosia elatior); test: Test A postemergence; conditions: Ambrosia artemisiifolia, post-emergence, 240 h, 125 g ai/ha, Postemergence; visual injury after approximately 10 d; 0 to 100 scale where 0 is no effect and 100 is complete control; read-out: Plant response rating, Ragweed
Method in brief: as §1

[9] = test system: blackgrass (Alopecurus myosuroides); test: Test A postemergence; conditions: Alopecurus myosuroides, post-emergence, 240 h, 125 g ai/ha, Postemergence; visual injury after approximately 10 d; 0 to 100 scale where 0 is no effect and 100 is complete control; read-out: Plant response rating, Blackgrass
Method in brief: as §1

[10] = test system: Kochia (Kochia scoparia); test: Test A postemergence; conditions: Bassia scoparia, post-emergence, 240 h, 125 g ai/ha, Postemergence; visual injury after approximately 10 d; 0 to 100 scale where 0 is no effect and 100 is complete control; read-out: Plant response rating, Kochia
Method in brief: as §1

[11] = test system: corn (Zea mays); test: Test A postemergence; conditions: Zea mays, post-emergence, 240 h, 125 g ai/ha, Postemergence; visual injury after approximately 10 d; 0 to 100 scale where 0 is no effect and 100 is complete control
Method in brief: as §1

[12] = test system: barnyardgrass (Echinochloa crus-galli); test: Test A postemergence; conditions: Echinochloa crus-galli, post-emergence, 240 h, 125 g ai/ha, Postemergence; visual injury after approximately 10 d; 0 to 100 scale where 0 is no effect and 100 is complete control; read-out: Plant response rating, Barnyardgrass
Method in brief: as §1

[13] = test system: Galium (catchweed bedstraw, Galium aparine); test: Test A postemergence; conditions: Galium, post-emergence, 240 h, 125 g ai/ha, Postemergence; visual injury after approximately 10 d; 0 to 100 scale where 0 is no effect and 100 is complete control; read-out: Plant response rating, Galium
Method in brief: as §1

[14] = test system: ryegrass, Italian (Italian ryegrass, Lolium multiflorum); test: Test A postemergence; conditions: Lolium multiflorum, post-emergence, 240 h, 125 g ai/ha, Postemergence; visual injury after approximately 10 d; 0 to 100 scale where 0 is no effect and 100 is complete control; read-out: Plant response rating, Ryegrass, Italian
Method in brief: as §1

[15] = test system: giant foxtail (Setaria faberii); test: Test A postemergence; conditions: Setaria faberi, post-emergence, 240 h, 125 g ai/ha, Postemergence; visual injury after approximately 10 d; 0 to 100 scale where 0 is no effect and 100 is complete control; read-out: Plant response rating, Foxtail, Giant
Method in brief: as §1

[16] = test system: wheat (Triticum aestivum); test: Test A postemergence; conditions: Triticum aestivum, post-emergence, 240 h, 125 g ai/ha, Postemergence; visual injury after approximately 10 d; 0 to 100 scale where 0 is no effect and 100 is complete control; read-out: Plant response rating, Wheat
Method in brief: as §1

[17] = test system: ducksalad (Heteranthera limosa); test: Test B flooded paddy test; conditions: Heteranthera limosa, Flood, 250 g ai/ha; scale of 0 to 100 where 0 is no effect and 100 is complete control; read-out: Ducksalad plant response rating
Method in brief: (§2)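 Rating scale 0–100 (visual, vs untreated controls) after a 13–15 d greenhouse period; application to the flood layer, 3 cm above soil and maintained; plants at 2-leaf stage when treated.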

[18] = test system: barnyardgrass (Echinochloa crus-galli); test: Test B flooded paddy test; conditions: Echinochloa crus-galli, Flood, 250 g ai/ha; scale of 0 to 100 where 0 is no effect and 100 is complete control; read-out: Barnyardgrass plant response rating
Method in brief: as §2

[19] = test system: rice (Oryra sativa); test: Test B flooded paddy test; conditions: Oryza sativa, Flood, 250 g ai/ha; scale of 0 to 100 where 0 is no effect and 100 is complete control; read-out: Rice plant response rating
Method in brief: as §2

[20] = test system: sedge, umbrella (small-flower umbrella sedge, Cyperus difformis); test: Test B flooded paddy test; conditions: Cyperus difformis, 250 g ai/ha, Flood; 0 to 100 scale where 0 is no effect and 100 is complete control; read-out: Sedge, Umbrella plant response rating
Method in brief: as §2

Compound: CN1C[C@H](c2cc(F)cc(F)c2)[C@@H](C(=O)Nc2ccc(O)cc2F)C1=O [Compound 985]
- pest or weed control at 125 g/ha ([1]; 125 g ai/ha, Preemergence, visual injury rating after approximately 10 d, read-out: Pigweed plant response rating (0 to 100 scale, 0 is no effect, 100 is complete control)): 0%
- pest or weed control at 500 g/ha ([1]; 500 g ai/ha, preemergence, visual injury rating about 10 d after treatment, 0 to 100 scale (0 no effect, 100 complete control), read-out: Pigweed plant response rating): 0%
- pest or weed control at 125 g/ha ([2]; 125 g ai/ha, Preemergence, visual injury rating after approximately 10 d, read-out: Ragweed plant response rating (0 to 100 scale, 0 is no effect, 100 is complete control)): 0%
- pest or weed control at 500 g/ha ([2]; 500 g ai/ha, preemergence, visual injury rating about 10 d after treatment, 0 to 100 scale (0 no effect, 100 complete control), read-out: Ragweed plant response rating): 0%
- pest or weed control at 125 g/ha ([3]; 125 g ai/ha, Preemergence, visual injury rating after approximately 10 d, read-out: Kochia plant response rating (0 to 100 scale, 0 is no effect, 100 is complete control)): 0%
- pest or weed control at 500 g/ha ([3]; 500 g ai/ha, preemergence, visual injury rating about 10 d after treatment, 0 to 100 scale (0 no effect, 100 complete control), read-out: Kochia plant response rating): 0%
- pest or weed control at 125 g/ha ([4]; 125 g ai/ha, Preemergence, visual injury rating after approximately 10 d, read-out: Barnyardgrass plant response rating (0 to 100 scale, 0 is no effect, 100 is complete control)): 0%
- pest or weed control at 500 g/ha ([4]; 500 g ai/ha, preemergence, visual injury rating about 10 d after treatment, 0 to 100 scale (0 no effect, 100 complete control), read-out: Barnyardgrass plant response rating): 0%
- pest or weed control at 125 g/ha ([5]; 125 g ai/ha, Preemergence, visual injury rating after approximately 10 d, read-out: Ryegrass, Italian plant response rating (0 to 100 scale, 0 is no effect, 100 is complete control)): 0%
- pest or weed control at 500 g/ha ([5]; 500 g ai/ha, preemergence, visual injury rating about 10 d after treatment, 0 to 100 scale (0 no effect, 100 complete control), read-out: Ryegrass, Italian plant response rating): 0%
- pest or weed control at 125 g/ha ([6]; 125 g ai/ha, Preemergence, visual injury rating after approximately 10 d, read-out: Foxtail, Giant plant response rating (0 to 100 scale, 0 is no effect, 100 is complete control)): 0%
- pest or weed control at 500 g/ha ([6]; 500 g ai/ha, preemergence, visual injury rating about 10 d after treatment, 0 to 100 scale (0 no effect, 100 complete control), read-out: Foxtail, Giant plant response rating): 0%
- pest or weed control at 125 g/ha [7]: 0%
- pest or weed control at 125 g/ha [8]: 0%
- pest or weed control at 125 g/ha [9]: 0%
- pest or weed control at 125 g/ha [10]: 0%
- Corn plant response rating (crop injury, 0 = no effect, 100 = complete kill) at 125 g/ha [11]: 0%
- pest or weed control at 125 g/ha [12]: 0%
- pest or weed control at 125 g/ha [13]: 0%
- pest or weed control at 125 g/ha [14]: 0%
- pest or weed control at 125 g/ha [15]: 0%
- plant injury at 125 g/ha [16]: 0%
- pest or weed control at 250 g/ha [17]: 40%
- pest or weed control at 250 g/ha [18]: 0%
- pest or weed control at 250 g/ha [19]: 0%
- pest or weed control at 250 g/ha [20]: 0%
